Measurements as given in paper PMC12644462, “A novel radiosensitizer α-sulfoquinovosyl-acylpropanediol (SQAP) inhibits DNA repair pathways and sensitize cells to cancer chemotherapeutic agents” (Scientific Reports, 2025).
Structures can show the parent of a compound that is named as a salt. Where two headings read alike, the source gives them in different places.

Experiments:
[1] = tested on: Chinese hamster V79 cells; assay: Colony formation assay, radio- and chemosensitization; assay type: cell-based
Procedure: For hypoxia irradiation, cell cultures were placed in Aneropak Kenki system (Mitsubishi Gas Chemical, Tokyo, Japan) with oxygen meter to confirm pO2 below 0.1%. Cells were kept in hypoxia for 3 h before irradiation.

[2] = tested on: CML-6M and STSA-1 cells; assay: Colony formation assay, chemosensitization by SQAP (qualitative); assay type: cell-based, canine; details: for sensitization of chemotherapeutic agent by SQAP: combined with 30 µM SQAP
Procedure: Sensitivity to radiation or chemical reagents was assessed through colony formation assays. After trypsinized single cells were plated to form 20–200 colonies per dish and then treated with SQAP for 3 h in normoxia or hypoxia, the cells were irradiated. For drug sensitivity study, trypsinized cells were plated and then treated with various dosage of testing agents. After seven days of incubation, colonies were fixed, stained and scored. Regression curves were drawn from survival fraction, and D10 values (doses to achieve 10% cell survival) were calculated by Prism 8 (GraphPad software, San Diego, CA, USA) from at least three independent experiments. Oxygen enhancement ratio (OER) and sensitization enhancement ratio (SER) values were calculated from D10 values. OER values were calculated from the D10 value in hypoxia divided by the D10 value in normoxic condition. SER values were calculated from the D10 value without SQAP divided by the D10 value with SQAP.

[3] = tested on: CML-6M cells; assay: Colony formation assay, drug sensitivity with SQAP; assay type: cell-based, canine
Procedure: (§1) Sensitivity to radiation or chemical reagents was assessed through colony formation assays. After trypsinized single cells were plated to form 20–200 colonies per dish and then treated with SQAP for 3 h in normoxia or hypoxia, the cells were irradiated. For drug sensitivity study, trypsinized cells were plated and then treated with various dosage of testing agents. After seven days of incubation, colonies were fixed, stained and scored[24]. Regression curves were drawn from survival fraction, and D10 values (doses to achieve 10% cell survival) were calculated by Prism 8 (GraphPad software, San Diego, CA, USA) from at least three independent experiments. Oxygen enhancement ratio (OER) and sensitization enhancement ratio (SER) values were calculated from D10 values. OER values were calculated from the D10 value in hypoxia divided by the D10 value in normoxic condition. SER values were calculated from the D10 value without SQAP divided by the D10 value with SQAP.

[4] = tested on: STSA-1 cells; assay: Colony formation assay, drug sensitivity with SQAP; assay type: cell-based, canine
Procedure: as §1

## N.N.[Cl][Pt][Cl] [cisplatin]
[1]; V79, P < 0.05
  change of D10 value of the agent with SQAP treatment: significant reduction

## COc1cccc2c1C(=O)c1c(O)c3c(c(O)c1C2=O)C[C@@](O)(C(=O)CO)C[C@@H]3O[C@H]1C[C@H](N)[C@H](O)[C@H](C)O1 [doxorubicin, Doxorubicin hydrochloride]
[2]
  sensitization of chemotherapeutic agent by SQAP: most dramatic sensitization
[3]; with 30 µM SQAP
  D10: 8.94 nM
[3]; without SQAP
  D10: 18.0 nM
[4]; STSA-1, with 30 µM SQAP
  D10: 4.66 nM
[4]; STSA-1, without SQAP
  D10: 8.11 nM

## CC(=O)O[C@H]1C(=O)[C@@]2(C)[C@H]([C@H](OC(=O)c3ccccc3)[C@]3(O)C[C@H](OC(=O)[C@H](O)[C@@H](NC(=O)c4ccccc4)c4ccccc4)C(C)=C1C3(C)C)[C@]1(OC(C)=O)CO[C@@H]1C[C@@H]2O [Taxol]
[1]
  effect of SQAP on cytotoxicity of the agent: increased the cytotoxicity

## C[C@]12C=CC(=O)C=C1CC[C@@H]1[C@@H]2[C@@H](O)C[C@@]2(C)[C@H]1CC[C@]2(O)C(=O)CO [prednisolone]
[2]; colony formation
  cytotoxicity (D10 not available): low cytotoxicity
[2]
  sensitization of chemotherapeutic agent by SQAP: no sensitization

## N.N.O=C([O-])C1(C(=O)[O-])CCC1.[Pt+2] [carboplatin]
[2]
  sensitization of chemotherapeutic agent by SQAP: significant sensitization

## O=NN(CCCl)C(=O)NC1CCCCC1 [lomustine]
[2]
  sensitization of chemotherapeutic agent by SQAP: no sensitization

## O=C(O)CCCc1ccc(N(CCCl)CCCl)cc1 [chlorambucil, Chlorambucil]
[2]
  sensitization of chemotherapeutic agent by SQAP: no sensitization

## bleomycin
[1]
  change of D10 value of the agent with SQAP treatment: significant reduction
  sensitization to bleomycin by SQAP: sensitized and not

## O=C1c2c(O)ccc(O)c2C(=O)c2c(NCCNCCO)ccc(NCCNCCO)c21 [Mitoxantrone, Mitoxantrone dihydrochloride]
[2]
  sensitization of chemotherapeutic agent by SQAP: significant sensitization

## COc1cc([C@@H]2c3cc4c(cc3[C@@H](O[C@@H]3O[C@@H]5CO[C@@H](C)O[C@H]5[C@H](O)[C@H]3O)[C@H]3COC(=O)[C@H]23)OCO4)cc(OC)c1O [etoposide]
[1]
  effect of SQAP on cytotoxicity of the agent: increased the cytotoxicity

## CC[C@@]1(O)C(=O)OCc2c1cc1n(c2=O)Cc2cc3ccccc3nc2-1 [camptothecin, Camptothecin]
[1]; V79, 10 and 20 µM SQAP
  effect of SQAP on cytotoxicity of the agent: increased the cytotoxicity
[1]; V79, P < 0.05
  change of D10 value of the agent with SQAP treatment: significant reduction

## CO[C@@]12[C@H](COC(N)=O)C3=C(C(=O)C(C)=C(N)C3=O)N1C[C@@H]1N[C@@H]12 [MMC, Mitomycin C]
[1]; V79, 10 and 20 µM SQAP
  effect of SQAP on cytotoxicity of the agent: increased the cytotoxicity

## COS(C)(=O)=O [MMS, methyl methanesulfonate]
[1]
  effect of SQAP on cytotoxicity of the agent: increased the cytotoxicity
